In ChEMBL document CHEMBL1268954, “Toward the development of innovative bifunctional agents to induce differentiation and to promote apoptosis in leukemia: clinical candidates and perspectives” (J Med Chem, 2010):
One block for each compound: values may come before it.

Key:
[1] = Oral bioavailability in mouse; type: ADME, organism-based; conditions: in vivo
[2] = Oral bioavailability in rat; type: ADME, organism-based; conditions: in vivo
[3] = Oral bioavailability in dog; type: ADME, organism-based, Canis lupus familiaris; conditions: in vivo
[4] = biological target: Apoptosis regulator Bcl-2 (Homo sapiens, UniProt P10415); test: Binding affinity to BCl2
[5] = Inhibition of FTase
[6] = Induction of apoptosis in human CLL cells; type: functional, cell-based
[7] = Aqueous solubility of the compound; type: physicochemical; conditions: aqueous medium
[8] = Inhibition of proteasome; type: subcellular
[9] = Selectivity ratio of IC50 for cathepsin to IC50 for proteasome
Cathepsin G [10] = biological target: T1, Cathepsin G (Homo sapiens, UniProt P08311); test: Inhibition of cathepsin G
T1 sequence (P08311 whole entry): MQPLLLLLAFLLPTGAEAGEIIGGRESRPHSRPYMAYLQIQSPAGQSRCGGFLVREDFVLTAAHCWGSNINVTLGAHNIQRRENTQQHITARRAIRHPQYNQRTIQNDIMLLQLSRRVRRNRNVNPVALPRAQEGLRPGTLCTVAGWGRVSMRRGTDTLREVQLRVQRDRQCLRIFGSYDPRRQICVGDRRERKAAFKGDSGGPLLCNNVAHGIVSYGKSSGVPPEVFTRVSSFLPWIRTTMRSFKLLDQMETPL

Cathepsin G [11] = biological target: T1, Cathepsin G; test: Inhibition of cathepsin G in human MOLT4 cells; type: cell-based, MOLT-4

Sequence of Apoptosis regulator Bcl-2 (P10415 whole entry): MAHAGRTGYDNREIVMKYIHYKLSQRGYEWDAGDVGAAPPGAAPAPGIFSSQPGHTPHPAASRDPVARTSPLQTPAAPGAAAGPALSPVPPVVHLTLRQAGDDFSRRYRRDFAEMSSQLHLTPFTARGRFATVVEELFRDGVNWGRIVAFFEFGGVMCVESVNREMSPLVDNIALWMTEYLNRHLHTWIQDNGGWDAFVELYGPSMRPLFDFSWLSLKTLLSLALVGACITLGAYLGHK

bioavailability [1]: 17%
bioavailability [2]: 21%
bioavailability [3]: 39%
Structure (SMILES): COC[C@H](NC(=O)c1cnc(C)s1)C(=O)N[C@@H](COC)C(=O)N[C@@H](Cc1ccccc1)C(=O)[C@]1(C)CO1

Ki [4]: 62 nM
Structure (SMILES): CN(C)CC[C@H](CSc1ccccc1)Nc1ccc(S(=O)(=O)NC(=O)c2ccc(N3CCC(C)(C)CC3)cc2)cc1[N+](=O)[O-]

Structure (SMILES): Cn1cncc1[C@](N)(c1ccc(Cl)cc1)c1ccc2c(c1)c(-c1cccc(Cl)c1)cc(=O)n2C [(S)-TIPIFARNIB]
EC50 [5]: 1.8 nM

EC50 [6]: 4.5 nM
solubility [7]: < 1 µg/mL
Structure (SMILES): CN(C)CC[C@H](CSc1ccccc1)Nc1ccc(S(=O)(=O)NC(=O)c2ccc(N3CCN(Cc4ccccc4-c4ccc(Cl)cc4)CC3)cc2)cc1[N+](=O)[O-] [ABT 737]

IC50 [8]: 0.6 nM
Ratio IC50 [9]: 200000
Structure (SMILES): CC(C)C[C@H](NC(=O)[C@H](Cc1ccccc1)NC(=O)c1cnccn1)B(O)O [BORTEZOMIB]

IC50 (Cathepsin G [10]): 13.7 nM
EC50 (Cathepsin G [11]): 13.5 nM
Structure (SMILES): CC(C)C[C@H](NC(=O)[C@@H](NC(=O)c1cccc(-c2ccccc2)n1)[C@@H](C)O)B(O)O [DELANZOMIB]

Structure (SMILES): Cn1cncc1[C@@](N)(c1ccc(Cl)cc1)c1ccc2c(c1)c(-c1cccc(Cl)c1)cc(=O)n2C [TIPIFARNIB]
IC50 [5]: 0.6 nM
